Test system: Alternaria solani
Assay: Activity against early blight of tomato caused by Alternaria solani
Format: in vivo
Settings: tomato cultivar Goldene Königin, protective spray 4 ppm, infected next day, assessed after 5 days; untreated plants 90% infected
Protocol: The active compounds were prepared as a stock solution comprising 25 mg of active compound which was filled up to 10 ml with a mixture of acetone and/or dimethyl sulfoxide and the emulsifier Uniperol® EL (wetting agent having an emulsifying and dispersing action based on ethoxylated alkylphenols) in a solvent/emulsifier volume ratio of 99 to 1. The solution was then made up to 100 ml with water. This stock solution was diluted with the solvent/emulsifier/water mixture described to the active compound concentration given below.
Leaves of potted plants of the cultivar “Goldene Königin” were sprayed to runoff point with an aqueous suspension having the concentration of active compounds stated below. The next day, the leaves were infected with an aqueous spore suspension of Alternaria solani in 2% biomalt solution having a density of 0.12×10^6 spores/ml. The plants were then placed in a water-vapor-saturated chamber at temperatures of between 20 and 22° C. After 5 days, the infection on the untreated, but infected control plants had developed to such an extent that the infection could be determined visually in %.

| SMILES | infection |
| --- | --- |
| Cc1nc(C(F)(F)F)c(C(=O)Nc2ccccc2-c2ccc(F)c(F)c2)s1 | 20% |
| Cc1nc(C(F)(F)F)c(C(=O)Nc2ccccc2-c2cc(F)c(F)c(F)c2)s1 [I.1, N-(3′,4′,5′-Trifluorobiphenyl-2-yl)-2-methyl-4-trifluoromethylthiazole-5-carboxamide] | at most 7% |

— US20110004021A1, “THIAZOLECARBOXANILIDES” (priority 2005, published 2011)
